Measured values published in patent publication US20020009747A1, “METHODS AND REAGENTS FOR IDENTIFYING MODULATORS OF NEURONAL APOPTOSIS” (priority 1997, published 2002).
Entries after “also recorded” stand apart in the source; their conditions may differ.

Test system: primary sympathetic neurons
Assay: NGF withdrawal assay, neuronal survival quantitated by MTT assay
Format: cell-based
Details: protein expressed by recombinant adenovirus infection, NGF withdrawn
Procedure: One experimental system which can be used to assay for changes in death marker proteins in neurons undergoing cell death employs primary sympathetic neurons that are cultured for 3-5 days in nerve growth factor (NGF) to maintain their survival, after which time NGF is withdrawn to induce apoptosis. Death of the neuron occurs within 48 hours and requires transcription. […] Prior to the commitment point, the neurons can be rescued by re-supplying them with NGF; subsequent to the commitment point, the neurons can no longer be rescued, and are committed to die. As a part of the invention, we have shown that death due to NGF withdrawal in this assay is an apoptotic event (see Example V, below).
To confirm that primary sympathetic neurons die by apoptotic cell death, neurons were infected with a recombinant adenovirus expressing E1B55K, an adenoviral protein known to inhibit apoptosis by inhibiting p53. After adenovirus infection, NGF was withdrawn, and neuronal survival was then quantitated by MTT assay, as in Slack et al. supra.

Substance	neuronal survival / death after NGF withdrawal
Bcl2: a protein that can inhibit apoptosis	inhibits cell death in NGF-deprived neurons
E1B55K: adenoviral protein known to inhibit apoptosis by inhibiting p53, expressed from a recombinant adenovirus	inhibits death in NGF-deprived neurons; also recorded: rescue of sympathetic neuron apoptosis
